Results as given in patent US9630922B2, “3-spiro-7-hydroxamic acid tetralins as HDAC inhibitors” (Forma Therapeutics, Inc., priority 2015, dated 2017).

Biological target: T1, HDAC6 (Homo sapiens, UniProt Q9UBN7)
T1 construct: Full length human recombinant HDAC6 protein was expressed in baculoviral system; made in house; host or cells: baculoviral system
T1 sequence (Q9UBN7 1-1215): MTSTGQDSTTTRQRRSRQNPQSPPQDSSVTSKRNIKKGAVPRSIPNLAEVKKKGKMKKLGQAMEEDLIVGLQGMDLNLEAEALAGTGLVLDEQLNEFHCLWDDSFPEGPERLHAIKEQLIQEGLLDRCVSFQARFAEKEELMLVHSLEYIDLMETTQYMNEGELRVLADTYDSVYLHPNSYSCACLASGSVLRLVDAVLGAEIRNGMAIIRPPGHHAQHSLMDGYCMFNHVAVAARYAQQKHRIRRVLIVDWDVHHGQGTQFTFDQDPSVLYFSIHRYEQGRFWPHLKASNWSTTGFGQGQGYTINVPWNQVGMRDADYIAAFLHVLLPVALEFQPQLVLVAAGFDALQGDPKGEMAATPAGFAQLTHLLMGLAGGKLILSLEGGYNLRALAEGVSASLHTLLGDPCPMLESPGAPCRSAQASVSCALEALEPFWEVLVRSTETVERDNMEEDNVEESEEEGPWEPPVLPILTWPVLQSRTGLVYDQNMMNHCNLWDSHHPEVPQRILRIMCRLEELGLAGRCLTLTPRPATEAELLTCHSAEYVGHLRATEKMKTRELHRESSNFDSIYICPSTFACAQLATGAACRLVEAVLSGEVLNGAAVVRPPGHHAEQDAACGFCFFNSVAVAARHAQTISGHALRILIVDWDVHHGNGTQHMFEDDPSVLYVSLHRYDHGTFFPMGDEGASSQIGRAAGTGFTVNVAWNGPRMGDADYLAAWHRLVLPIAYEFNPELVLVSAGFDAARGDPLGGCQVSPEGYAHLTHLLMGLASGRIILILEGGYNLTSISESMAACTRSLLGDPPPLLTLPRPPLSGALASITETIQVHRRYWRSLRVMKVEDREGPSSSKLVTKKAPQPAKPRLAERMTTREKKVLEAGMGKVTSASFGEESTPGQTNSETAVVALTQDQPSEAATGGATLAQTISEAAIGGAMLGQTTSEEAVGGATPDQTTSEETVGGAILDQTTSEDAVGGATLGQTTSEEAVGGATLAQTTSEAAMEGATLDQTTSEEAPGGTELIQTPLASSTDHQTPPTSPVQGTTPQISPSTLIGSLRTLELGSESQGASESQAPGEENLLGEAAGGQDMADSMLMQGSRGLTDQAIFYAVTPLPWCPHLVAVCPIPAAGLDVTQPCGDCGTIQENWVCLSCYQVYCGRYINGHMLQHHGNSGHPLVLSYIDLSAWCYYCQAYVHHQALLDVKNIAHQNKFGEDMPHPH
Assay: In vitro Histone Deacetylase Assay (enzymatic HDAC6 electrophoretic mobility shift assay)
Format: biochemical
Conditions: full length human recombinant HDAC6, 1 nM enzyme, 2 μM peptide substrate RHKK(Ac)-NH2, 25° C.; read-out: HDAC6 activity range
Method in brief: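 Deacetylation was read by microfluidic mobility shift as product/(substrate+product) peak ratio and normalised to 0% and 100% inhibition controls. Reactions used 1 nM baculovirus-expressed full-length human HDAC6 and 2 μM labelled RHKK(Ac)-NH2 in pH 7.5 HEPES buffer with 1% DMSO at 25 °C. IC50 was from 4-parameter fits of 12 concentrations.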

Row | IC50 [nM] | Structure (SMILES)
1 | ≤ 100 | Cc1ccccc1CN1CC[C@@]2(CCc3cc(C(=O)NO)ccc3C2)C1=O [Compound I-66, (S)-N-hydroxy-1′-(2-methylbenzyl)-2′-oxo-3,4-dihydro-1H-spiro[naphthalene-2,3′-pyrrolidine]-6-carboxamide]
2 | 100 to 500 | O=C(NO)c1ccc2c(c1)CC[C@@]1(CCN(Cc3ccccc3C(F)(F)F)C1=O)C2 [Compound I-67, (S)-N-hydroxy-2′-oxo-1′-(2-(trifluoromethyl)benzyl)-3,4-dihydro-1H-spiro[naphthalene-2,3′-pyrrolidine]-6-carboxamide]
3 | 100 to 500 | O=C(NO)c1ccc2c(c1)CC[C@@]1(CCN(Cc3ccccc3Cl)C1=O)C2 [Compound I-68, (S)-1′-(2-chlorobenzyl)-N-hydroxy-2′-oxo-3,4-dihydro-1H-spiro[naphthalene-2,3′-pyrrolidine]-6-carboxamide]
4 | 100 to 500 | O=C(NO)c1ccc2c(c1)CC[C@@]1(CCN(Cc3ccccc3OC(F)(F)F)C1=O)C2 [Compound I-69, (S)-N-hydroxy-2′-oxo-1′-(2-(trifluoromethoxy)benzyl)-3,4-dihydro-1H-spiro[naphthalene-2,3′-pyrrolidine]-6-carboxamide]
5 | ≤ 100 | O=C(NO)c1ccc2c(c1)CC[C@@]1(CCN(Cc3ccc4nonc4c3)C1=O)C2 [Compound I-70, (S)-1′-(benzo[c][1,2,5]oxadiazol-5-ylmethyl)-N-hydroxy-2′-oxo-3,4-dihydro-1H-spiro[naphthalene-2,3′-pyrrolidine]-6-carboxamide]
6 | 100 to 500 | O=C(NO)c1ccc2c(c1)CC[C@@]1(CCN(CC(=O)N3CCOCC3)C1=O)C2 [Compound I-71, (S)-N-hydroxy-1′-(2-morpholino-2-oxoethyl)-2′-oxo-3,4-dihydro-1H-spiro[naphthalene-2,3′-pyrrolidine]-6-carboxamide]
7 | ≤ 100 | COc1ccccc1CN1CC[C@@]2(CCc3cc(C(=O)NO)ccc3C2)C1=O [Compound I-72, (S)-N-hydroxy-1′-(2-methoxybenzyl)-2′-oxo-3,4-dihydro-1H-spiro[naphthalene-2,3′-pyrrolidine]-6-carboxamide]
8 | ≤ 100 | CC(C)n1c(CN2CC[C@@]3(CCc4cc(C(=O)NO)ccc4C3)C2=O)nc2ccccc21 [Compound I-73, (S)-N-hydroxy-1′-((1-isopropyl-1H-benzo[d]imidazol-2-yl)methyl)-2′-oxo-3,4-dihydro-1H-spiro[naphthalene-2,3′-pyrrolidine]-6-carboxamide]
9 | 100 to 500 | O=C(NO)c1ccc2c(c1)CC[C@@]1(CCN(Cc3cc(Cl)ccc3Cl)C1=O)C2 [Compound I-74, (S)-1′-(2,5-dichlorobenzyl)-N-hydroxy-2′-oxo-3,4-dihydro-1H-spiro[naphthalene-2,3′-pyrrolidine]-6-carboxamide]
10 | 100 to 500 | O=C(NO)c1ccc2c(c1)CC[C@@]1(CCN(Cc3c(Cl)cccc3Cl)C1=O)C2 [Compound I-75, (S)-1′-(2,6-dichlorobenzyl)-N-hydroxy-2′-oxo-3,4-dihydro-1H-spiro[naphthalene-2,3′-pyrrolidine]-6-carboxamide]
11 | ≤ 100 | O=C(NO)c1ccc2c(c1)CC[C@@]1(CCN(Cc3ccccc3)C1=O)C2 [Compound I-76, (S)-1′-benzyl-N-hydroxy-2′-oxo-3,4-dihydro-1H-spiro[naphthalene-2,3′-pyrrolidine]-6-carboxamide]
12 | ≤ 100 | COc1cccc(CN2CC[C@@]3(CCc4cc(C(=O)NO)ccc4C3)C2=O)c1 [Compound I-77, (S)-N-hydroxy-1′-(3-methoxybenzyl)-2′-oxo-3,4-dihydro-1H-spiro[naphthalene-2,3′-pyrrolidine]-6-carboxamide]
13 | ≤ 100 | O=C(NO)c1ccc2c(c1)CC[C@@]1(CCN(Cc3ccccn3)C1=O)C2 [Compound I-78, (S)-N-hydroxy-2′-oxo-1′-(pyridin-2-ylmethyl)-3,4-dihydro-1H-spiro[naphthalene-2,3′-pyrrolidine]-6-carboxamide]
